The text below walks through data of patent US20220402948A1, “EGFR INHIBITOR, COMPOSITION AND PREPARATION METHOD THEREFOR” (BETTA PHARMACEUTICALS CO., LTD., priority 2019, published 2022).

The target of one assay is EGFRΔ19del/T790M/C797S (Homo sapiens, UniProt P00533, T790M/C797S, form not given). Description: EGFR Δ19del/T790M/C797S kinase test (mobility variation analysis, Caliper EZ Reader). In kind it is biochemical. As to conditions: kinase enzymatic activity, Table 1. As for the experimental part:
(§1) Mobility variation analysis was performed to determine the affinity of the compound for EGFRΔ19del/T790M/C797S, EGFR WT and IGF1R. The enzymatic reaction scheme is as follows:
(§2) 1. Prepare 1*kinase buffer as follows.
(§3) 3. […] Prepare 2.5-fold final concentration of kinase solution with 1×Kinase buffer.
(§4) 4. Add 10 μL of 2.5-fold final concentration of kinase solution to the compound well and the positive control well; add 10 μL of 1×Kinase buffer to the negative control well.
(§5) 5. Centrifuge at 1000 rpm for 30 s, shake the reaction plate for well mixing, and then incubate at room temperature for 10 minutes.
(§6) 6. Prepare a mixture of ATP and Kinase substrate at 5/3-fold final concentration with 1×Kinase buffer.
(§7) 8. Centrifuge the 384-well plate at 1000 rpm for 30 s, shake it well and then incubate it at room temperature for corresponding time.
(§8) 9. Add 30 μL of stop detection solution to stop the kinase reaction, centrifuge at 1000 rpm for 30 s, and shake it well.
(§9) 10. Read conversion rate with Caliper EZ Reader.
(§10) % Inhibition=((Conversion%_max−Conversion%_sample)/(Conversion%_max−Conversion%_min))*100
(§11) Wherein: Conversion%_sample is the sample conversion rate reading; Conversion%_min: Mean value of negative control wells, representing the conversion rate reading of wells without enzymatic activity; Conversion%_max: Mean value of positive control wells, representing the conversion rate reading of wells without compound inhibition.
(§12) The dose-effect curve was fitted with concentration log value as X-axis and percentage inhibition rate as Y-axis. GraphPad Prism 5 analysis software was used for fitting Log (inhibitor) vs. response—Variable slope with the dose-effect curve to obtain IC50 value of enzymatic activity for each compound.
(§13) The calculation formula is as Y-Bottom+(Top-Bottom)/(1+10^((Log IC50−X)*HillSlope)).

The target of another assay is IGF1R (Homo sapiens, UniProt P08069). As to the kind of experiment: IGF1R kinase test (mobility variation analysis, Caliper EZ Reader). In kind it is biochemical. The note with it: kinase enzymatic activity, Table 1; read-out: EGFR IGF1R IC50. Here is the method:
as §1, §2
2. Preparation of compound concentration gradient: The test compound was tested with an initial concentration of 3000 nM (300 nM for some triple mutations and 100 nM for others), diluted in a 384 source plate (96-well plate for comparative compound 1 and compounds 1-38) to a 100% DMSO solution with 100-fold final concentration, and the compound is 3-fold diluted with Precision to 10 concentrations. A dispenser Echo 550 was used to transfer 250 nL 100-fold final concentration of the compound to the target plate OptiPlate-384F.
3. Prepare 2.5-fold final concentration (5-fold for comparative compound 1 and compounds 1-38) of kinase solution with 1×Kinase buffer. Following steps should also be carried out for comparative compound 1 and compounds 1-38: Add each prepared intermediate dilution compounds to the compound wells of 384-well plate respectively, and test the repeated wells of each concentration; add 5% DMSO of 5 plates into the negative control well and the positive control well respectively. Prepare 2.5-fold final concentration of kinase solution with 1×Kinase buffer.
as §4, §5, §6
7. Add 15 μL mixture of 5/3-fold (2.5-fold for comparative compound 1 and compounds 1-38) final concentration of ATP and substrate to start reaction.
as §7, §8, §9, §10, §11, §12, §13

Assay [1] addresses Ba/F3 cells with EGFR Δ19del/T790M/C797S mutation gene stably overexpressed (Homo sapiens, UniProt P00533, T790M/C797S, cells depend on it, form not given). As to the kind of experiment: Ba/F3-Δ19del/T790M/C797S cell proliferation assay (CellTiter Glo, 72 hours). In kind it is cell-based. The note with it: Table 2, read-out: EGFR Δ19del/T790M/C797S IC50. As for the experimental part: (§14) Cell line: Ba/F3 cells with EGFR Δ19del/T790M/C797S mutation gene stably overexpressed named Ba/F3-Δ119del/T90M/C797S, and A431 and Ba/F3-EGFR wild-type cell line.
(§15) a) Centrifuge the growth cells in logarithmic phase at 1000 rpm for 5 minutes, resuspend the cells in culture medium, and then count the cells;
(§16) b) Inoculate the cells into a 96-well cell culture plate with a density of 2000 cells/well;
(§17) b) Incubate cells in an incubator for another 72 hours.
(§18) a) Take out the 96-well cell culture plate and add 50 μl CTG reagent (CellTiter Glo kit, promega, Cat #G7573);
(§19) b) Shake the plate for 2 minutes and let cool at room temperature for 10 minutes;
(§20) c) Read luminous signal value with PerkinElmer reader,
(§21) Analysis of Experimental Data
(§22) The data were analyzed by GraphPad Prism 6.0 software to obtain the fitting curve of compound activity.
(§23) Y=Min+(Max−Min)/(1+10^((Log IC50−X)*slope));
(§24) X: Logarithm of compound concentration; Y: luminous signal.
(Cellular ATP, detected with luciferase, serves as a proxy for viable cell number.)

Another assay concerns A431. Description: A431 cell proliferation assay (CellTiter Glo, 72 hours). As to conditions: cell proliferation, A431, 72 hours, Table 2, read-out: A431 IC50. In kind it is cell-based. Here is the method:
as §14
RPMI 1640 and 10% FBS and 1% PS; DMEM and 10% FBS and 1% PS.
a) Dilute the test compound (20 mM stock solution) to 10 mM with 100% DMSO as the starting concentration, and then serially dilute 3 times with a “9+0” concentration in 96-well dilution plate (Cat #P-05525, Labcyte);
b) Dilute compound solution thereof to 1:100 (1:20 for comparative compound 1 and compounds 1-38) in medium to prepare 10-fold working solution;
as §15, §16
a) Compounds prepared at step 2 were added to cell plate with 15 μl per well, the final concentrations were 1000, 333, 111.1, 37, 12.3, 4.1, 1.4, 0.5, 0.2 and 0 nM, and the final concentration of DMSO was 0.1%. The blank control well was a culture medium (0.1% DMSO) (the blank control well of comparative compound 1 and compounds 1-38 was a culture medium (0.5% DMSO).
as §17, §18, §19, §20, §21, §22
Fitting compound IC50 from nonlinear regression equation:
as §23, §24

A further assay addresses EGFR WT (Homo sapiens, UniProt P00533). Description: EGFR WT kinase test (mobility variation analysis, Caliper EZ Reader). In kind it is biochemical. The note with it: kinase enzymatic activity, Table 1. Here is the method: as §1, §2, §3, §4, §5, §6, §7, §8, §9, §10, §11, §12, §13

Where two headings read alike, the source gives them in different places.

By IC50 is commonly meant the point on the concentration scale where inhibition reaches its midpoint.

IGF1R, sequence (P08069 31-1367, species assumed): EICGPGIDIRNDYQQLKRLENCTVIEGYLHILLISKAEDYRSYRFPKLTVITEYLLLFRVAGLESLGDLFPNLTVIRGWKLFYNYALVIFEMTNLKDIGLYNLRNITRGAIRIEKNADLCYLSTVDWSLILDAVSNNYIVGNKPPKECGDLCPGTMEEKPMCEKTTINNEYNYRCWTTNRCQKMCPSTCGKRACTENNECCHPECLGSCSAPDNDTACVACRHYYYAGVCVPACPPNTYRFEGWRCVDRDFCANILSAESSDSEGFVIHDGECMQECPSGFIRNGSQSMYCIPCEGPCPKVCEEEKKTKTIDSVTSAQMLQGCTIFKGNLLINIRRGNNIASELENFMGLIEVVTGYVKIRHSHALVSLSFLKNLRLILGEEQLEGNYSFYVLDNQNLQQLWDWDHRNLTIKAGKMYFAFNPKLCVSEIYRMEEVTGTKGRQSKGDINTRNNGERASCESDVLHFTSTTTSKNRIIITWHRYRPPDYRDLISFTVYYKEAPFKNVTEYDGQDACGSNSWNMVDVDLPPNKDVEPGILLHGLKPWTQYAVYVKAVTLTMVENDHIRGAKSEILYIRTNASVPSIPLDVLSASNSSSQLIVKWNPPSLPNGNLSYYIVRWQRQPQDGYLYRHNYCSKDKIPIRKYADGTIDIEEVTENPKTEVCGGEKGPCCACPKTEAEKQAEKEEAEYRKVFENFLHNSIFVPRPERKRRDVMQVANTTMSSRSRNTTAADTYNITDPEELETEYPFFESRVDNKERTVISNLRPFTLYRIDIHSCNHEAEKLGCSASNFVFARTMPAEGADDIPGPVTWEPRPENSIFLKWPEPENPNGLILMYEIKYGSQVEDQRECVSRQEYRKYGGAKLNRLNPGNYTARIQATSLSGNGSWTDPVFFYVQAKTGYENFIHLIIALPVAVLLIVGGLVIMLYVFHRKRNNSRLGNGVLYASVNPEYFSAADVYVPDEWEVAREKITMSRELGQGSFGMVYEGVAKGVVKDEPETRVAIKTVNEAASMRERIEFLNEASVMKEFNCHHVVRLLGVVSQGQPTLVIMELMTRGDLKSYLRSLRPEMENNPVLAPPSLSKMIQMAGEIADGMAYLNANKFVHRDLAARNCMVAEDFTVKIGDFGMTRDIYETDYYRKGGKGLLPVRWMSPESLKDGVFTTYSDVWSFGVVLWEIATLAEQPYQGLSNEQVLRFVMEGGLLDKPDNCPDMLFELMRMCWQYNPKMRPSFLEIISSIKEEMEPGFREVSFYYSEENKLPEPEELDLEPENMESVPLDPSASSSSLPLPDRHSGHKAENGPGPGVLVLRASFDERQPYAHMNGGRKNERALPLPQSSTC

On to `CCc1cc(Nc2ncc(Cl)c(Nc3ccc(-c4ccccc4)cc3P(C)(C)=O)n2)c(OC)cc1N1CCC(N2CCN(C)CC2)CC1` [Compound 2, (4-((5-Chloro-2-((5-ethyl-2-methoxy-4-(4-(4-methylpiperazin-1-yl)piperidin-1-yl)phenyl)amino)pyrimidin-4-yl)amino)-[1,1′-biphenyl]-3-yl)dimethylphosphine oxide], for which the 50% inhibitory concentration (IC50) was 0.7 nM at EGFRΔ19del/T790M/C797S; 150 nM on IGF1R; 812 nM in the assay on A431 (Homo sapiens, A-431, 72 h). Further, the GI50 in assay [1] was 21.8 nM.
Regarding `CCc1cc(Nc2ncc(Cl)c(Nc3ccc(-c4cnn5c4OCCC5)cc3P(C)(C)=O)n2)c(OC)cc1N1CCC(N2CCN(C)CC2)CC1` [Compound 7, (2-((5-Chloro-2-((5-ethyl-2-methoxy-4-(4-(4-methylpiperazin-1-yl)piperidin-1-yl)phenyl)amino)pyrimidin-4-yl)amino)-5-(6,7-dihydro-5H-pyrazolo[5,1-b][1,3]nitrox-3-yl)phenyl)dimethylphosphine oxide], the IC50 was found to be 0.5 nM on EGFRΔ19del/T790M/C797S and 187 nM at IGF1R. Besides, in assay [1], the GI50 was 46.2 nM.
Consider `CCc1cc(Nc2ncc(Cl)c(Nc3ccc(-c4cncs4)cc3P(C)(C)=O)n2)c(OC)cc1N1CCC(N2CCN(C)CC2)CC1` [Compound 15, (2-((5-Chloro-2-((5-ethyl-2-methoxy-4-(4-(4-methylpiperazin-1-yl)piperidin-1-yl)phenyl)amino)pyrimidin-4-yl)amino)-5-(thiazol-5-yl)phenyl)dimethylphosphine oxide], for which the half-inhibitory concentration (IC50) at EGFRΔ19del/T790M/C797S turned out to be 0.3 nM; on IGF1R, 66.5 nM. Moreover, the GI50 in assay [1] amounted to 16.1 nM.
On to `CCc1cc(Nc2ncc(Cl)c(Nc3ccc(-c4cnn5cnccc45)cc3P(C)(C)=O)n2)c(OC)cc1N1CCC(N2CCN(C)CC2)CC1` [Compound 23, (2-((5-Chloro-2-((5-ethyl-2-methoxy-4-(4-(4-methylpiperazin-1-yl)piperidin-1-yl)phenyl)amino)pyrimidin-4-yl)amino)-5-(pyrazolo[1,5-c]pyrimidin-3-yl)phenyl)dimethylphosphine oxide], for which the IC50 against EGFRΔ19del/T790M/C797S was 0.5 nM; at EGFR WT, 18.9 nM; on IGF1R it was 261 nM. The GI50 in assay [1] came out at 42.9 nM.
Take `CCc1cc(Nc2ncc(Cl)c(Nc3ccc(-c4cnc(C)nc4)cc3P(C)(C)=O)n2)c(OC)cc1N1CCC(N2CCN(C)CC2)CC1` [Compound 24, (2-((5-Chloro-2-((5-ethyl-2-methoxy-4-(4-(4-methylpiperazin-1-yl)piperidin-1-yl)phenyl)amino)pyrimidin-4-yl)amino)-5-(2-methylpyrimidin-5-yl)phenyl)dimethylphosphine oxide]: the IC50 at EGFRΔ19del/T790M/C797S was 0.7 nM; against EGFR WT, 66.9 nM; at IGF1R, 264 nM. Also, the GI50 in assay [1] came to 44 nM.
As to `CCc1cc(Nc2ncc(Cl)c(Nc3ccc(-c4nn(C)cc4C#N)cc3P(C)(C)=O)n2)c(OC)cc1N1CCC(N2CCN(C)CC2)CC1` [Compound 57], the IC50 on EGFRΔ19del/T790M/C797S came out at 0.4 nM; against EGFR WT, 13.9 nM; at IGF1R, 196 nM. Also, the GI50 in assay [1] was 40.8 nM.
For `CCc1cc(Nc2ncc(Br)c(Nc3ccc(-c4nccnc4OC)cc3P(C)(C)=O)n2)c(OC)cc1N1CCC(N2CCN(C)CC2)CC1` [Compound 72, (2-((5-Bromo-2-((5-ethyl-2-methoxy-4-(4-(4-methylpiperazin-1-yl)piperidin-1-yl)phenyl)(amino)amino]pyrimidin-4-yl)amino)-5-(3-methoxypyrazin-2-yl)phenyl)dimethylphosphine oxide], the GI50 in assay [1] was found to be 29.4 nM. Besides, the half-maximal inhibitory concentration (IC50) in the assay with A431 (Homo sapiens, A-431, 72 h) is more than 10000 nM.
Regarding `CCc1cc(Nc2ncc(Br)c(Nc3ccc(-c4ccc(N(C)C)nn4)cc3P(C)(C)=O)n2)c(OC)cc1N1CCC(N2CCN(C)CC2)CC1` [Compound 77, (2-((5-Bromo-2-((5-ethyl-2-methoxy-4-(4-(4-methylpiperazin-1-yl)piperidin-1-yl)phenyl)amino]pyrimidin-4-yl)amino)-5-(6-(dimethylamino)pyridazin-3-yl)phenyl)dimethylphosphine oxide], the GI50 in assay [1] was 27.2 nM. Besides, the IC50 in the assay with A431 is more than 10000 nM.
In the case of `CCn1cc(-c2cc(Nc3ncc(Br)c(Nc4ccc(-c5cccc6cc[nH]c56)cc4P(C)(C)=O)n3)c(OC)cc2N2CCC(N3CCN(C)CC3)CC2)cn1` [Compound K-091, (2-((5-Bromo-2-((5-(1-ethyl-1H-pyrazol-4-yl)-2-methoxy-4-(4-(4-methylpiperazin-1-yl)piperidin-1-yl)phenyl)amino)pyrimidin-4-yl)amino)-5-(1H-indol-7-yl)phenyl)dimethylphosphine oxide], the IC50 is 0.8 nM against EGFRΔ19del/T790M/C797S, 38.8 nM against EGFR WT and 279 nM on IGF1R.
On the same counts, the results for `CCc1cc(Nc2ncc(Cl)c(Nc3ccc(-c4ccc[nH]c4=O)cc3P(C)(C)=O)n2)c(OC)cc1N1CCC(N2CCN(C)CC2)CC1` [Compound K-092, 3-(4-((5-Chloro-2-((5-ethyl-2-methoxy-4-(4-(4-methylpiperazin-1-yl)piperidin-1-yl)phenyl)amino)pyrimidin-4-yl)amino)-3-(dimethylphosphoryl)phenyl)pyridin-2(1H)-one] are 0.8 nM, 83.6 nM and 427 nM.
Consider `COc1cc(N2CCC(N3CCCCC3)CC2)c(-c2cnn(C)c2)cc1Nc1ncc(Br)c(Nc2ccc(-c3ccccc3)cc2P(C)(C)=O)n1` [Compound K-100], for which, in assay [1], the GI50 was 2.1 nM. Further, in the assay with A431 (Homo sapiens, A-431, 72 h), the IC50 came to 99.6 nM.
For `CCc1cc(Nc2ncc(Br)c(Nc3ccc(-c4cnn(C(F)F)n4)cc3P(C)(C)=O)n2)c(OC)cc1N1CCC(N2CCN(C)CC2)CC1` [Compound K-106, (2-((5-Bromo-2-((5-ethyl-2-methoxy-4-(4-(4-methylpiperazin-1-yl)piperidin-1-yl)phenyl)amino)pyrimidin-4-yl)amino)-5-(2-(difluoromethyl)-2H-1,2,3-triazol-4-yl)phenyl)dimethylphosphine oxide], the results for the IC50 against EGFRΔ19del/T790M/C797S, at EGFR WT and at IGF1R were 0.5 nM, 17 nM and 56 nM, respectively.
On to “(2-((5-Chloro-2-((5-ethyl-2-methoxy-4-(4-(4-methylpiperazin-1-yl)piperidin-1-yl)phenyl)amino)pyrimidin-4-yl)amino)-5-(3-ethoxy-5-methylisoxazol-4-yl)phenyl)dimethylphosphine oxide [Compound K-061]”, for which the figures for the IC50 against EGFRΔ19del/T790M/C797S, on EGFR WT and on IGF1R were 1.6 nM, 44 nM and 886 nM, respectively.
